Among the data in patent US7109203B2, “Sulfonamide derivatives” (Novartis AG, priority 2001, dated 2006) are Ki values, retold here.

The target of this experiment is T1, human bradykinin B1 receptor (Homo sapiens, UniProt P46663).
T1 construct: To upregulate expression of the B1 receptor the cells are treated with 100 units/ml of IL-1β; endogenous in cells; host or cells: WI-38 cells treated with 100 units/ml IL-1β for 3 hours
T1 sequence (P46663 1-353): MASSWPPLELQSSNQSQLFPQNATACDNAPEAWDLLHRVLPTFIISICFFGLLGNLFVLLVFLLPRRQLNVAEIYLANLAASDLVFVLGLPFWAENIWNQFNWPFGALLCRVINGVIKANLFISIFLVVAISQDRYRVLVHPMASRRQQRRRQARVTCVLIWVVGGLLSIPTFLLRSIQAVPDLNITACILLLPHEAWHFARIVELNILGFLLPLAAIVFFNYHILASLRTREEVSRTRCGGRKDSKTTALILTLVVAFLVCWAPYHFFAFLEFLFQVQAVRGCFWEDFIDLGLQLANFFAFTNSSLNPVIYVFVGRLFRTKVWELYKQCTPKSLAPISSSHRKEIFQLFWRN
As to the kind of experiment: Test I: Bradykinin Receptor Binding Assay ([3H]-desArg10kallidin displacement, IL-1β-treated WI-38 cells). To be noted: displacement of [3H]-desArg10kallidin, KI from IC50 by Cheng-Prussoff equation. For orientation: In a radioligand displacement assay an active substance lowers the binding of a labelled ligand.

Where a SMILES comes first, the peptide text is derived from it. [ ]: non-standard residue; d: D form. Oic = O=C(O)[C@@H]1C[C@@H]2CCCC[C@@H]2N1; Hyp = O=C(O)[C@@H]1C[C@@H](O)CN1; dTic = O=C(O)[C@H]1Cc2ccccc2CN1; 2Thi = N[C@@H](Cc1cccs1)C(=O)O

Experimental: WI-38 cells are grown in Dulbecco's Modified Eagle Medium s supplemented with 1% non-essential amino acids, 2 mM L-glutamine, 100 IU/ml penicillin, 100 μg/ml streptomycin and 10% foetal calf serum. The cells are grown in 175 cm^2 tissue culture flasks and split approximately 1–2 times a week at a ratio of 1:2 using trypsin to detach the cells. WI-38 cells are plated onto 24 well plates at approximately 50,000 cells per well and grown overnight. To upregulate expression of the B1 receptor the cells are treated with 100 units/ml of IL-1β for 3 hours prior to the assay. The binding buffer is 10 mM HEPES in Hank's Balanced Salt solution pH 7.4 plus 1 mM phenanthroline and 0.14 mg/ml bacitracin. […] Non-specific binding is determined with 3 μM desArg^10kallidin. […] The cells are solubilised with 0.2% SDS and the amount of radioactivity in the samples determined by liquid scintillation counting. […]
Results are calculated by subtracting the value for non-specific binding from all values and calculating the amount of binding for each concentration of compound as a percentage of the specific binding with no compound. The IC50 values are calculated in ORIGIN using a logistic fit. KI values are calculated from the IC50 values using the Cheng-Prussoff equation (KI=IC50/(1+([RL]/Kd)) where [RL] is the radioligand concentration.

The Ki is the equilibrium dissociation constant of an inhibitor or competing ligand from its target. For `N=C(N)NCCC[C@@H](N)C(=O)N[C@@H](CCCNC(=N)N)C(=O)N1CCC[C@H]1C(=O)N1C[C@H](O)C[C@H]1C(=O)NCC(=O)N[C@@H](Cc1cccs1)C(=O)N[C@@H](CO)C(=O)N1Cc2ccccc2C[C@@H]1C(=O)N1[C@H](C(=O)O)C[C@@H]2CCCC[C@@H]21` [desArg^10HOE140, D-Arg-[Hyp^3, Thi^5, D-Tic^7, Oic^8]desArg^9 bradykinin] (H-[dR]RP[Hyp]G[2Thi]S[dTic][Oic]-OH; N-terminus and C-terminus assumed), the Ki was 63 nM.

Regarding `O=C(O)CN(CCOc1ccc2c(c1)CCC2)S(=O)(=O)c1ccc(Br)cc1Cl` [Example 5, {(4-bromo-2-chloro-benzenesulfonyl)-[2-(indan-5-yloxy)-ethyl]-amino}-acetic acid], the Ki is around 300 nM.
